Measured values: US20140105921A1, “Prodrugs of Peptide Epoxy Ketone Protease Inhibitors” (Onyx Therapeutics, Inc., priority 2012, published 2014)
Where two headings read alike, the source gives them in different places.

What was measured:
c20s = c20s (Homo sapiens, UniProt P20618+P28074); experiment: Purified PI, IC50 against c20s; assay type: biochemical
i20s = i20s (Homo sapiens, UniProt P20618+P28062); experiment: Purified PI, IC50 against i20s; assay type: biochemical
[1] = In vivo mouse PK of Compound A and PEG prodrugs; details: for [Cmpd A]: BLOQ = below level of quantitation
[2] = Conversion of Prodrugs by Human Liver S9; assay type: in vitro ADME
[3] = Buffer Conversion Rates of Prodrugs to Compound B; assay type: physicochemical
[4] = IC50 60 minute point c20s, Table H, 60 minute point
[5] = Table H, read-out: IC50 Slope c20s
[6] = IC50 60 minute point i20s, Table H, 60 minute point
[7] = Table H, read-out: IC50 Slope i20s
[8] = Table G, value marked *: did not converge, read-out: IC50 Slope c20s
[9] = Table G, value marked *: did not converge, read-out: IC50 Slope i20s
[10] = Table G, read-out: IC50 Slope i20s
[11] = Table G, read-out: IC50 Slope c20s

## COC[C@H](NC(=O)c1cnc(C)s1)C(=O)N[C@@H](COC)C(=O)N[C@@H](Cc1ccccc1)C(=O)[C@](C)(O)COS(=O)(=O)c1ccc(C)cc1
c20s; [4]
  IC50: 748 nM
c20s; [5]
  IC50: 141 nM
i20s; [6]
  IC50: 637 nM
i20s; [7]
  IC50: 252 nM

## CC(C)C[C@H](NC(=O)[C@H](CCc1ccccc1)NC(=O)CN1CCOCC1)C(=O)N[C@@H](Cc1ccccc1)C(=O)N[C@@H](CC(C)C)/C(=N/O)[C@@]1(C)CO1
c20s; [8]
  IC50: 279 nM
i20s; [9]
  IC50: 2290 nM

## CC(C)C[C@H](NC(=O)[C@H](CCc1ccccc1)NC(=O)CN1CCOCC1)C(=O)N[C@@H](Cc1ccccc1)C(=O)N[C@@H](CC(C)C)C(=O)[C@@]1(C)CO1 [Cmpd A, (S)-4-methyl-N—((S)-1-(((S)-4-methyl-1-((R)-2-methyloxiran-2-yl)-1-oxopentan-2-yl)amino)-1-oxo-3-phenylpropan-2-yl)-2-((S)-2-(2-morpholinoacetamido)-4-phenylbutanamido)pentanamide]
[1]; Time 4 hr
  [Cmpd A]: BLOQ
[1]; Time 6 hr
  [Cmpd A]: BLOQ
[1]; Time 24 hr
  [Cmpd A]: BLOQ
[1]; plasma, Time 1 hr, read-out: [Cmpd A]
  concentration at 1 hr: 8 nM

## COC[C@H](NC(=O)c1cnc(C)s1)C(=O)N[C@@H](COC)C(=O)N[C@@H](Cc1ccccc1)C(=O)[C@@](C)(CI)OC(=O)CCl [20-23]
[2]
  Human Liver S9 % Conversion @ 1 hour: 22%

## COC[C@H](NC(=O)c1cnc(C)s1)C(=O)N[C@@H](COC)C(=O)N[C@@H](Cc1ccccc1)C(=O)[C@](C)(O)COS(=O)(=O)Cc1ccccc1 [drawing 374]
c20s; [5]
  IC50: 95.4 nM

## COC[C@H](NC(=O)c1cnc(C)s1)C(=O)N[C@@H](COC)C(=O)N[C@@H](Cc1ccccc1)C(=O)[C@@](C)(CI)OC=O [20-24]
[2]
  Human Liver S9 % Conversion @ 1 hour: 29%

## CC(=O)OC[C@@](C)(O)C(=O)[C@H](CC(C)C)NC(=O)[C@H](Cc1ccccc1)NC(=O)[C@H](CC(C)C)NC(=O)[C@H](CCc1ccccc1)NC(=O)CN1CCOCC1
c20s; [8]
  IC50: 2440 nM
i20s; [10]
  IC50: 8190 nM

## CC(C)C[C@H](NC(=O)[C@H](CCc1ccccc1)NC(=O)CN1CCOCC1)C(=O)N[C@@H](Cc1ccccc1)C(=O)N[C@@H](CC(C)C)/C(=N/OCc1ccccc1)[C@@]1(C)CO1
c20s; [11]
  IC50: 539 nM
i20s; [10]
  IC50: 2180 nM

## COC[C@H](NC(=O)c1cnc(C)s1)C(=O)N[C@@H](COC)C(=O)N[C@@H](Cc1ccccc1)C(=O)[C@](C)(O)CI [20-1]
[3]
  Buffer pH = 7.4 % Conversion @ 1 hour: 24%

## COC[C@H](NC(=O)c1cnc(C)s1)C(=O)N[C@@H](COC)C(=O)N[C@@H](Cc1ccccc1)C(=O)[C@](C)(O)COS(C)(=O)=O
c20s; [4]
  IC50: 459 nM
c20s; [5]
  IC50: 103 nM
i20s; [6]
  IC50: 614 nM
i20s; [7]
  IC50: 179 nM

## Cc1ccc(S(=O)(=O)OC[C@@](C)(O)C(=O)[C@H](CC(C)C)NC(=O)[C@H](Cc2ccccc2)NC(=O)[C@H](CC(C)C)NC(=O)[C@H](CCc2ccccc2)NC(=O)CN2CCOCC2)cc1
c20s; [11]
  IC50: 73.7 nM
i20s; [10]
  IC50: 316 nM

## COC[C@H](NC(=O)c1cnc(C)s1)C(=O)N[C@@H](COC)C(=O)N[C@@H](Cc1ccccc1)C(=O)[C@](C)(O)COP(=O)(c1ccccc1)c1ccccc1
c20s; Table H, 60 minute point
  IC50 60 minute point c20s: inactive
i20s; Table H, 60 minute point
  IC50 60 minute point i20s: inactive

## COC[C@H](NC(=O)c1cnc(C)s1)C(=O)N[C@@H](COC)C(=O)N[C@@H](Cc1ccccc1)/C(=N/OC)[C@@]1(C)CO1
c20s; IC50 60 minute point c20s, Table H, 60 minute point, value marked * (Table G: did not converge)
  IC50: 2560 nM
i20s; Table H, 60 minute point
  IC50 60 minute point i20s: inactive

## CC(C)C[C@H](NC(=O)[C@H](CCc1ccccc1)NC(=O)CN1CCOCC1)C(=O)N[C@@H](Cc1ccccc1)C(=O)N[C@@H](CC(C)C)C(=O)[C@](C)(O)COS(C)(=O)=O
c20s; [11]
  IC50: 37.7 nM
i20s; [10]
  IC50: 98.7 nM

## CC(C)C[C@H](NC(=O)[C@H](CCc1ccccc1)NC(=O)CN1CCOCC1)C(=O)N[C@@H](Cc1ccccc1)C(=O)N[C@@H](CC(C)C)C(=O)[C@](C)(O)COn1nnc2ccccc21
c20s; [8]
  IC50: 2470 nM
i20s; [9]
  IC50: 2820 nM

## COCCOCCOCCOCCC(=O)N/N=C(/[C@H](CC(C)C)NC(=O)[C@H](Cc1ccccc1)NC(=O)[C@H](CC(C)C)NC(=O)[C@H](CCc1ccccc1)NC(=O)CN1CCOCC1)[C@@]1(C)CO1
i20s; [9]
  IC50: 3240 nM

## COC[C@H](NC(=O)c1cnc(C)s1)C(=O)N[C@@H](COC)C(=O)N[C@@H](Cc1ccccc1)C(=O)[C@@](C)(CI)OC(=O)OCc1oc(=O)oc1C [20-15]
[2]
  Human Liver S9 % Conversion @ 1 hour: 30%

## COC[C@H](NC(=O)c1cnc(C)s1)C(=O)N[C@@H](COC)C(=O)N[C@@H](Cc1ccccc1)C(=O)[C@@](C)(CI)OC(=O)CCCOC(C)=O [20-13]
[2]
  Human Liver S9 % Conversion @ 1 hour: 11%

## CCCCS(=O)(=O)OC[C@@](C)(O)C(=O)[C@H](Cc1ccccc1)NC(=O)[C@H](COC)NC(=O)[C@H](COC)NC(=O)c1cnc(C)s1 [20-7]
[3]
  Buffer pH = 7.4 % Conversion @ 1 hour: 4.2%

## CC(C)C[C@H](NC(=O)[C@H](CCc1ccccc1)NC(=O)C[N+]1(COC(=O)C(C)(C)C)CCOCC1)C(=O)N[C@@H](Cc1ccccc1)C(=O)N[C@@H](CC(C)C)C(=O)[C@@]1(C)CO1
c20s; [11]
  IC50: 8.91 nM
i20s; [10]
  IC50: 49.8 nM

## COC[C@H](NC(=O)c1cnc(C)s1)C(=O)N[C@@H](COC)C(=O)N[C@@H](Cc1ccccc1)C(=O)[C@](C)(O)COS(=O)(=O)CC(F)F [20-6]
[3]
  Buffer pH = 7.4 % Conversion @ 1 hour: 5.7%

## COC[C@H](NC(=O)c1cnc(C)s1)C(=O)N[C@@H](COC)C(=O)N[C@@H](Cc1ccccc1)C(=O)[C@@](C)(CI)OC(=O)COc1ccccc1 [20-19]
[2]
  Human Liver S9 % Conversion @ 1 hour: 7%

## COC[C@H](NC(=O)c1cnc(C)s1)C(=O)N[C@@H](COC)C(=O)N[C@@H](Cc1ccccc1)C(=O)[C@](C)(O)COS(=O)(=O)Cc1ccccc1 [compound 23]
[3]
  Buffer pH = 7.4 % Conversion @ 1 hour: 9.6%

## CCOC(=O)O[C@](C)(CI)C(=O)[C@H](Cc1ccccc1)NC(=O)[C@H](COC)NC(=O)[C@H](COC)NC(=O)c1cnc(C)s1 [20-25]
[2]
  Human Liver S9 % Conversion @ 1 hour: 14%

## CO/N=C(/[C@H](CC(C)C)NC(=O)[C@H](Cc1ccccc1)NC(=O)[C@H](CC(C)C)NC(=O)[C@H](CCc1ccccc1)NC(=O)CN1CCOCC1)[C@@]1(C)CO1
c20s; [8]
  IC50: 2610 nM

## CC(=O)N/N=C(/[C@H](CC(C)C)NC(=O)[C@H](Cc1ccccc1)NC(=O)[C@H](CC(C)C)NC(=O)[C@H](CCc1ccccc1)NC(=O)CN1CCOCC1)[C@@]1(C)CO1
c20s; [11]
  IC50: 678 nM
i20s; [9]
  IC50: 2180 nM

## COC[C@H](NC(=O)c1cnc(C)s1)C(=O)N[C@@H](COC)C(=O)N[C@@H](Cc1ccccc1)C(=O)[C@](C)(O)COS(=O)(=O)C1CCOCC1 [compound 22]
[3]
  Buffer pH = 7.4 % Conversion @ 1 hour: 9.8%

## CCOC(=O)C(=O)O[C@](C)(CI)C(=O)[C@H](Cc1ccccc1)NC(=O)[C@H](COC)NC(=O)[C@H](COC)NC(=O)c1cnc(C)s1 [20-16]
[2]
  Human Liver S9 % Conversion @ 1 hour: 24%

## COC[C@H](NC(=O)c1cnc(C)s1)C(=O)N[C@@H](COC)C(=O)N[C@@H](Cc1ccccc1)C(=O)[C@@](C)(CI)OC(=O)Oc1ccccc1 [20-26]
[2]
  Human Liver S9 % Conversion @ 1 hour: 32%

## COC[C@H](NC(=O)c1cnc(C)s1)C(=O)N[C@@H](COC)C(=O)N[C@@H](Cc1ccccc1)C(=O)[C@](C)(O)CBr [20-3]
[3]
  Buffer pH = 7.4 % Conversion @ 1 hour: 23%

## COC[C@H](NC(=O)c1cnc(C)s1)C(=O)N[C@@H](COC)C(=O)N[C@@H](Cc1ccccc1)C(=O)[C@](C)(O)COC(=O)c1c(Cl)cccc1Cl
c20s; Table H, 60 minute point
  IC50 60 minute point c20s: inactive
i20s; Table H, 60 minute point
  IC50 60 minute point i20s: inactive

## COC[C@H](NC(=O)c1cnc(C)s1)C(=O)N[C@@H](COC)C(=O)N[C@@H](Cc1ccccc1)C(=O)[C@](C)(O)CCl [20-2]
[3]
  Buffer pH = 7.4 % Conversion @ 1 hour: 0%

## CC(C)C[C@H](NC(=O)[C@H](CCc1ccccc1)NC(=O)CN1CCOCC1)C(=O)N[C@@H](Cc1ccccc1)C(=O)N[C@@H](CC(C)C)C(=O)[C@](C)(O)COP(=O)(c1ccccc1)c1ccccc1
c20s; [11]
  IC50: 2670 nM
i20s; [9]
  IC50: 2550 nM

## CC(C)C[C@H](NC(=O)[C@H](CCc1ccccc1)NC(=O)CN1CCOCC1)C(=O)N[C@@H](Cc1ccccc1)C(=O)N[C@@H](CC(C)C)C(=O)[C@](C)(O)COC(=O)c1c(Cl)cccc1Cl
i20s; [10]
  IC50: 660 nM

## COC[C@H](NC(=O)c1cnc(C)s1)C(=O)N[C@@H](COC)C(=O)N[C@@H](Cc1ccccc1)C(=O)[C@@](C)(CI)OC(=O)OCc1ccc(OC(C)=O)cc1 [20-22]
[2]
  Human Liver S9 % Conversion @ 1 hour: 28%

## CC(C)C[C@H](NC(=O)[C@H](CCc1ccccc1)NC(=O)CN1CCOCC1)C(=O)N[C@@H](Cc1ccccc1)C(=O)N[C@@H](CC(C)C)C(=O)[C@](C)(O)CCl
c20s; [11]
  IC50: 615 nM
i20s; [10]
  IC50: 143 nM

## COC[C@H](NC(=O)c1cnc(C)s1)C(=O)N[C@@H](COC)C(=O)N[C@@H](Cc1ccccc1)C(=O)[C@@](C)(CI)OC(=O)CCCCSC(C)=O [20-10]
[2]
  Human Liver S9 % Conversion @ 1 hour: 3%

## COC[C@H](NC(=O)c1cnc(C)s1)C(=O)N[C@@H](COC)C(=O)N[C@@H](Cc1ccccc1)C(=O)[C@](C)(O)COS(=O)(=O)C1CCOCC1 [drawing 373]
c20s; [5]
  IC50: 193 nM
i20s; Table H, value marked * (Table G: did not converge), read-out: IC50 Slope i20s
  IC50: 278 nM

## COC[C@H](NC(=O)c1cnc(C)s1)C(=O)N[C@@H](COC)C(=O)N[C@@H](Cc1ccccc1)C(=O)[C@](C)(O)COC(C)=O
c20s; Table H, 60 minute point
  IC50 60 minute point c20s: inactive
i20s; Table H, 60 minute point
  IC50 60 minute point i20s: inactive

## CCOC(=O)CCC(=O)O[C@](C)(CI)C(=O)[C@H](Cc1ccccc1)NC(=O)[C@H](COC)NC(=O)[C@H](COC)NC(=O)c1cnc(C)s1 [20-17]
[2]
  Human Liver S9 % Conversion @ 1 hour: 1%
